# Experiments:
# Assay type in all cases: ADME
# [1] = target: T1, Sulfotransferase 1E1 (Homo sapiens, UniProt P49888); assay: Major substrate of human cytosolic sulfotransferase SULT1E1
# T1 sequence (P49888 whole entry): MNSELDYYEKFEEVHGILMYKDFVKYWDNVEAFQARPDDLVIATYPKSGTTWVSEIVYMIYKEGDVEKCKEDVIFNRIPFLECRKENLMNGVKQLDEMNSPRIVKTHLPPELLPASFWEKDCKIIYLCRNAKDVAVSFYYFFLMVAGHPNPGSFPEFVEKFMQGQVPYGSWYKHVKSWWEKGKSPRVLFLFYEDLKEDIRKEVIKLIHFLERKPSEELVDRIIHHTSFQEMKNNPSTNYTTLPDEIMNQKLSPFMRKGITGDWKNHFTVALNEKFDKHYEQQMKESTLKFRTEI
# [2] = target: T2, UDP-glucuronosyltransferase 1A9 (Homo sapiens, UniProt O60656); assay: Substrate of human UDP-glucuronosyltransferase UGT1A9
# T2 sequence (O60656 whole entry): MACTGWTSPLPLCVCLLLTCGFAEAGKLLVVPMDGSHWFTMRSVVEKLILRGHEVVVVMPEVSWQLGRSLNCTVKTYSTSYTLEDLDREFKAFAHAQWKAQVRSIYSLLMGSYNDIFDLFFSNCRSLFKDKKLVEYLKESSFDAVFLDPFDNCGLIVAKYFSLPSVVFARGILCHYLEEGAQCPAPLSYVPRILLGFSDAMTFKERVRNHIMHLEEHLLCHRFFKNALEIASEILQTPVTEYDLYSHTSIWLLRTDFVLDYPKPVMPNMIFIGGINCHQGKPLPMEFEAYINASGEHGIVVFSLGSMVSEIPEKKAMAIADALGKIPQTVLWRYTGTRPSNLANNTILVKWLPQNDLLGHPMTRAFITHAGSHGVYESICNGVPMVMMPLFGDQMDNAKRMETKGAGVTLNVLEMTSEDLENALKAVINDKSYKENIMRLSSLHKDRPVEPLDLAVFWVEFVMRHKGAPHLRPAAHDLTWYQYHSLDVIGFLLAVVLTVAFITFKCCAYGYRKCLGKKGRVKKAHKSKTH
# [3] = target: T3, UDP-glucuronosyltransferase 1A8 (Homo sapiens, UniProt Q9HAW9); assay: Substrate of human UDP-glucuronosyltransferase UGT1A8
# T3 sequence (Q9HAW9 whole entry): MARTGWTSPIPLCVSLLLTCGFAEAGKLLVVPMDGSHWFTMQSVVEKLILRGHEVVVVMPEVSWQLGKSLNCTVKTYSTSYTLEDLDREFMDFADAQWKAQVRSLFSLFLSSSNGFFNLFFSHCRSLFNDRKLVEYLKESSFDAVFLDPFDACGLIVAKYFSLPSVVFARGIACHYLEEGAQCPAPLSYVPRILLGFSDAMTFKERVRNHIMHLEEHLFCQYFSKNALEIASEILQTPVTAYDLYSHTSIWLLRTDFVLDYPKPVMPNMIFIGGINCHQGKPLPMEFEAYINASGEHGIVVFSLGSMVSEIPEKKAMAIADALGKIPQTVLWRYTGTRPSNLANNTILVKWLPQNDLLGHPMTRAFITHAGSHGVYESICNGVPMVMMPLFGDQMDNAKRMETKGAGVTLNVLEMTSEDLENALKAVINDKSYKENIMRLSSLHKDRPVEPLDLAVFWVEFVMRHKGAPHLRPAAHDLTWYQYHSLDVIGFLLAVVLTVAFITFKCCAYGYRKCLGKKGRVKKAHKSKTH
# [4] = target: T4, Cytochrome P450 1A2 (Homo sapiens, UniProt P05177); assay: Clinically relevant substrates of human liver microsomal P450 enzymes, isoform CYP1A2; settings: microsomes
# T4 sequence (P05177 whole entry): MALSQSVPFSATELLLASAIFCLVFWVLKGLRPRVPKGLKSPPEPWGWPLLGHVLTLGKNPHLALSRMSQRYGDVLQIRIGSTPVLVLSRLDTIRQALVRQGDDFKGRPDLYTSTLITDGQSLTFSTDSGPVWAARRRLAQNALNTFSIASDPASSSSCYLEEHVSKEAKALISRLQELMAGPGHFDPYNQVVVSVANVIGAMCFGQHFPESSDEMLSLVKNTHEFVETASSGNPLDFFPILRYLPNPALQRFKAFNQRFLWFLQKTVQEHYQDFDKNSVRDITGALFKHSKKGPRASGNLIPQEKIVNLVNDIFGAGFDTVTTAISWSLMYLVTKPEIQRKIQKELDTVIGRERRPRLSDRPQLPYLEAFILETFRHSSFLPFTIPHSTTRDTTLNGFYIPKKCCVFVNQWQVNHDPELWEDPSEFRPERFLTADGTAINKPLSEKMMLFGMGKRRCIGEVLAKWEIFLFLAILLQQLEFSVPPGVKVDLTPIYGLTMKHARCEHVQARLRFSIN
# [5] = target: T5, UDP-glucuronosyltransferase 2B7 (Homo sapiens, UniProt P16662); assay: Substrate of human UDP-glucuronosyltransferase UGT2B7
# T5 sequence (P16662 whole entry): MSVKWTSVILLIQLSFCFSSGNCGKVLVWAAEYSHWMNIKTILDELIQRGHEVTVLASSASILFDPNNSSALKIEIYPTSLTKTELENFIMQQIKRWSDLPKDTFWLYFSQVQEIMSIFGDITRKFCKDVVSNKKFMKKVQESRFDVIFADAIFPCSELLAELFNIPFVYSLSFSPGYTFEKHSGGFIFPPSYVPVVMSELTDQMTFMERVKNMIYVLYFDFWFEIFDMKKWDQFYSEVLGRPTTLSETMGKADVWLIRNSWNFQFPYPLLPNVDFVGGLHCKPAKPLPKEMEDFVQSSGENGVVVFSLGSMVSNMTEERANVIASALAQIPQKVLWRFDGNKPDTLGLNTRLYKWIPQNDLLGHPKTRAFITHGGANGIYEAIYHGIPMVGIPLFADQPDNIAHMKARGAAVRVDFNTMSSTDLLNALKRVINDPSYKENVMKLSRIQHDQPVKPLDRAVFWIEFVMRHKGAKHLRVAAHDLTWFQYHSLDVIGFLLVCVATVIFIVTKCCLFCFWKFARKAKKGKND
# [6] = target: T6, Sulfotransferase 2A1 (Homo sapiens, UniProt Q06520); assay: Major substrate of human cytosolic sulfotransferase SULT2A1
# T6 sequence (Q06520 whole entry): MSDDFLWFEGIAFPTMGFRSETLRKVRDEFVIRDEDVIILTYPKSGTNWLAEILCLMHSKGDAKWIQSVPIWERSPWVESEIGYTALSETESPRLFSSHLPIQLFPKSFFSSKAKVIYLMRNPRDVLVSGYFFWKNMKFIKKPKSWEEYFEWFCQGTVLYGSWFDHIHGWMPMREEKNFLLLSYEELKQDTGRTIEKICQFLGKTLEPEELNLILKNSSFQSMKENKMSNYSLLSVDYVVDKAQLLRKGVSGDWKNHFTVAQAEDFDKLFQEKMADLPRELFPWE
# [7] = target: T7, Glutathione S-transferase A1 (Homo sapiens, UniProt P08263); assay: Substrates for human cytosolic glutathione transferase GSTA1
# T7 sequence (P08263 whole entry): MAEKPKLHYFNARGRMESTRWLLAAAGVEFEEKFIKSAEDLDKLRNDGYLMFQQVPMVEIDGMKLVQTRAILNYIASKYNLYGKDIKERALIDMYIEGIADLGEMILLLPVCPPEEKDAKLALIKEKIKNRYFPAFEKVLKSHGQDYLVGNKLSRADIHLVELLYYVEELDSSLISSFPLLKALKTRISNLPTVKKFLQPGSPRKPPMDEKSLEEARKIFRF
# [8] = target: Sulfotransferase 1A1 (Homo sapiens, UniProt P50225); assay: Major substrate of human cytosolic sulfotransferase SULT1A1
# Sulfotransferase 1A1, sequence (P50225 whole entry): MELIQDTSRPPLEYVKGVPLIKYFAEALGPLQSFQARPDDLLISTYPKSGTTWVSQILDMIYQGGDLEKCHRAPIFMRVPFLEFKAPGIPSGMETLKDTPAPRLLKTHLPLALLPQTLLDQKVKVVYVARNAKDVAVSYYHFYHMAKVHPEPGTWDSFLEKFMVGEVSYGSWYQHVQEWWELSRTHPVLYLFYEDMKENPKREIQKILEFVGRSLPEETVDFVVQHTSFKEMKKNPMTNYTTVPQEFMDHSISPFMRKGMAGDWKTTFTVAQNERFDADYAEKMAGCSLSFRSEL
smiles,measurement,setting,value
C[C@]12CCc3c(ccc4cc(O)ccc34)[C@@H]1CCC2=O [EQUILENIN],Activity,[1],Substrate
CC(C)c1cccc(C(C)C)c1O [PROPOFOL],Activity,[2],Substrate
O=C1c2ccccc2C(=O)c2ccccc21 [ANTHRAQUINONE],Activity,[3],Substrate
CCOc1ccc2nc3ccc(=O)cc-3oc2c1 [ETHOXYRESORUFIN],Activity,[4],Substrate
C=CCN1CC[C@]23c4c5ccc(O)c4O[C@H]2C(=O)CC[C@@]3(O)[C@H]1C5 [NALOXONE],Activity,[5],Substrate
CNCC[C@H](Oc1cccc2ccccc12)c1cccs1 [DULOXETINE],Activity,[4],Substrate
OCc1c2ccccc2c2ccc3cccc4ccc1c2c43,Activity,[6],Substrate
O=C(O)Cc1cn(-c2ccc(O)cc2)nc1-c1ccc(Cl)cc1,Activity,[1],Substrate
CCCC1O[C@@H]2C[C@H]3[C@@H]4CCC5=CC(=O)C=C[C@]5(C)[C@H]4[C@@H](O)C[C@]3(C)[C@]2(C(=O)CO)O1 (stereo partly specified) [BUDESONIDE],Activity,[6],Substrate
CC/C(=C(\c1ccccc1)c1ccc(OCCN(C)C)cc1)c1ccccc1 [TAMOXIFEN],Activity,[1],Substrate
OC1c2ccc3ccc4ccccc4c3c2C2OC2C1O (stereo unspecified) [BENZO[C]PHENANTHRENE DIOL EPOXIDE],Activity,[7],Substrate
"Cn1c(N)nc2ncc(-c3ccccc3)cc21 [2-AMINO-1-METHYL-6- PHENYLIMIDAZO[4,5- B]PYRIDINE]",Activity,[7],Substrate
CC(C)(Oc1ccc(Cl)cc1)C(=O)O [CLOFIBRIC ACID],Activity,[3],Substrate
same,Activity,[5],Substrate
CCN(CC)CCNc1ccc(CO)c2sc3ccccc3c(=O)c12 [HYCANTHONE],Activity,[6],Substrate
CN1CC[C@]23c4c5ccc(O)c4O[C@H]2[C@@H](O[C@@H]2O[C@H](C(=O)O)[C@@H](O)[C@H](O)[C@H]2O)C=C[C@H]3[C@H]1C5 [MORPHINE GLUCURONIDE],Activity,[5],Substrate
Cc1[nH]cnc1CN1CCc2c(c3ccccc3n2C)C1=O [ALOSETRON],Activity,[4],Substrate
OC1c2ccc3c4ccccc4c4ccccc4c3c2C2OC2C1O (stereo unspecified) [BENZO[G]CHRYSENE DIOL EPOXIDE],Activity,[7],Substrate
Cc1cc(CC(=O)O)n(C)c1C(=O)c1ccc(Cl)cc1 [ZOMEPIRAC],Activity,[5],Substrate
C[C@]12CC[C@@H]3c4cc(O)c(O)cc4CC[C@H]3[C@@H]1CCC2=O [2-HYDROXYESTRONE],Activity,[1],Substrate
Cn1c(NO)nc2ncc(-c3ccccc3)cc21,Activity,[8],Substrate
Cn1c(=O)c2c(ncn2C)n(C)c1=O [CAFFEINE],Activity,[4],Substrate
CC(C)OC(=O)C(C)(C)Oc1ccc(C(=O)c2ccc(Cl)cc2)cc1 [FENOFIBRATE],Activity,[2],Substrate
CC(C(=O)O)c1ccc(C(=O)c2ccccc2)s1 (stereo unspecified) [TIAPROFENIC ACID],Activity,[5],Substrate
CS(=O)(=O)OCCCCOS(C)(=O)=O [BUSULFAN],Activity,[7],Substrate
O=C1C[C@@H](c2ccc(O)cc2)Oc2cc(O)cc(O)c21 [NARINGENIN],Activity,[1],Substrate
O=C(O)c1ccccc1O [SALICYLIC ACID],Activity,[2],Substrate
O=C(O)c1cc(-c2ccc(F)cc2F)ccc1O [DIFLUNISAL],Activity,[3],Substrate
same,Activity,[2],Substrate
O=C(O)c1cccnc1Nc1cccc(C(F)(F)F)c1 [NIFLUMIC ACID],Activity,[3],Substrate
CC(C(=O)O)c1ccc2oc(-c3ccc(Cl)cc3)nc2c1 (stereo unspecified) [BENOXAPROFEN],Activity,[5],Substrate
CCCCNc1cc(C(=O)O)cc(S(N)(=O)=O)c1Oc1ccccc1 [BUMETANIDE],Activity,[2],Substrate
Cc1ccc(O)cc1 [p-CRESOL],Activity,[8],Substrate
Cn1c(=O)c2[nH]cnc2n(C)c1=O.O [THEOPHYLLINE],Activity,[4],Substrate
C[C@]12CC[C@@H]3c4cc(O)c(O)cc4CC[C@H]3[C@@H]1CC[C@@H]2O,Activity,[1],Substrate
CC(C)[N+](=O)[O-],Activity,[8],Substrate
C[C@]12CC[C@@H]3c4ccc(O)c(O)c4CC[C@H]3[C@@H]1CC[C@@H]2O,Activity,[1],Substrate
Clc1ccc2nsnc2c1NC1=NCCN1 [TIZANIDINE],Activity,[4],Substrate
Oc1cccc2cccnc12 [OXYQUINOLINE],Activity,[3],Substrate
CN1CCc2cccc3c2[C@H]1Cc1ccc(O)c(O)c1-3 [APOMORPHINE],Activity,[8],Substrate
CCc1ccc(O)cc1,Activity,[8],Substrate
CC(C)(Oc1ccc(C2CC2(Cl)Cl)cc1)C(=O)O (stereo unspecified) [CIPROFIBRATE],Activity,[3],Substrate
CCOc1ccc(NC(C)=O)cc1 [PHENACETIN],Activity,[4],Substrate
Nc1c2c(nc3ccccc13)CCCC2 [TACRINE],Activity,[4],Substrate
Nc1cc(N2CCCCC2)nc(N)[n+]1[O-] [MINOXIDIL],Activity,[8],Substrate
Cc1cn([C@H]2C[C@H](N=[N+]=[N-])[C@@H](CO)O2)c(=O)[nH]c1=O [ZIDOVUDINE],Activity,[5],Substrate

# From ChEMBL document CHEMBL1743201, “Casarett and Doull's Toxicology The Basic Science of Poisons, 7th edition” (2008)
